Data published in patent US11365192B2, “Pyridine compound substituted with azole” (TAISHO PHARMACEUTICAL CO., LTD., priority 2017, dated 2022).

Key:
[1] = biological target: human CYP4A11 (Homo sapiens (Human), UniProt Q02928); assay: Inhibition test against 20-HETE producing enzyme CYP4A11 (luciferine derivative, luminescence); format: biochemical; conditions: human CYP4A11, luciferine derivative, luminescence
In short: (§1)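 IC50 derived from luminescence after 60 min at room temperature with membrane fractions of E. coli expressing each human CYP (100 μg/mL protein). For CYP4A11, 60 μM luciferin derivative in 100 mM Tris-HCl pH 7.5 with NADPH-regenerating system; for CYP4F2, 2.5 μM substrate, 1 mM NADPH, 50 mM KPO4 pH 7.4.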

[2] = biological target: human CYP4F2 (Homo sapiens (Human), UniProt P78329); assay: Inhibition test against 20-HETE producing enzyme CYP4F2 (luciferine derivative, luminescence); format: biochemical; conditions: human CYP4F2, luciferine derivative, luminescence
Sequence of human CYP4F2 (P78329 5-520): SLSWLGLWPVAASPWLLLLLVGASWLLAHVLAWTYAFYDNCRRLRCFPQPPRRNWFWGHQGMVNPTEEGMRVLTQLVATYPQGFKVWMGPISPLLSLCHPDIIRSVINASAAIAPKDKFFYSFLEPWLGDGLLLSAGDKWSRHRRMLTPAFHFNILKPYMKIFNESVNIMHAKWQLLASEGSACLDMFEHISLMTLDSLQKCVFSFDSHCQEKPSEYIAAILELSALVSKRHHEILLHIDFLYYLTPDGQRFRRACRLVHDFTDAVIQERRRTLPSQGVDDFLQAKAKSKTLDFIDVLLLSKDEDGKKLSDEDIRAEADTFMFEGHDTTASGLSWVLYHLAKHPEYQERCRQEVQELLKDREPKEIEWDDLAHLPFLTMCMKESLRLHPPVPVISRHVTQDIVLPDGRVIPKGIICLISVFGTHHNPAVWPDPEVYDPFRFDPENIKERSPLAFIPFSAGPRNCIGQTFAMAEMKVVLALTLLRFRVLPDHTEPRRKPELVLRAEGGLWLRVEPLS
In short: as §1

Sequence of human CYP4A11 (Q02928 5-519): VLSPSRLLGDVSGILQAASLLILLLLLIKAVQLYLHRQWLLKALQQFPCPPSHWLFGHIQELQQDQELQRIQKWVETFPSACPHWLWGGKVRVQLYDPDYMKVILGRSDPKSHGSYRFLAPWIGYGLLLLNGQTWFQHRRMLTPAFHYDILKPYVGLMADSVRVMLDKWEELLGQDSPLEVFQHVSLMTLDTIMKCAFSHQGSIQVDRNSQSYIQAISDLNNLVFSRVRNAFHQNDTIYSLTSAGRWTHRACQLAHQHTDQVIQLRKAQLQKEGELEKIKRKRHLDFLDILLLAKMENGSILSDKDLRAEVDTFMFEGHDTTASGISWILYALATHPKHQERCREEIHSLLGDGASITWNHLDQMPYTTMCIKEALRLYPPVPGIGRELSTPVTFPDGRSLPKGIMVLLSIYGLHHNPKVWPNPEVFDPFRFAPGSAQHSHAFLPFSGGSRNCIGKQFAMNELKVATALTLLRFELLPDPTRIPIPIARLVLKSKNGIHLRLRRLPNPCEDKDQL

Row | SMILES | IC50 [1] [nM] | IC50 [2] [nM]
1 | O=C(O)C1COc2cc(CCOc3ccc(-c4ccn[nH]4)nc3)ccc2C1 (stereo not drawn) [Example 71-9] | 310 | 870
2 | O=C(O)C1COc2ccc(CCOc3ccc(-c4ccn[nH]4)nc3)cc2C1 (stereo not drawn) [Example 71-10] | 140 | 260
3 | O=C(O)C1CCc2c(COc3ccc(-c4ccn[nH]4)nc3)cccc2O1 (stereo not drawn) [Example 71-11] | 22 | 29000
4 | O=C(O)C1COc2c(CCOc3ccc(-c4ccn[nH]4)nc3)cccc2C1 (stereo not drawn) [Example 71-12] | 18 | 1300
5 | O=C(O)c1ccc(F)c(CCCOc2ccc(-c3ccn[nH]3)nc2)c1 [Example 71-13] | 51 | 770
6 | O=C(O)c1cccc(CCCCCOc2ccc(-c3ccn[nH]3)nc2)n1 [Example 71-14] | 150 | 1300
7 | O=C(O)C1CC1c1ccc(COc2ccc(-c3ccn[nH]3)nc2)cc1 (stereo not drawn) [Example 71-15] | 84 | 1200
8 | O=C(O)C1CC1c1ccc(CCOc2ccc(-c3ccn[nH]3)nc2)c(F)c1 (stereo not drawn) [Example 71-16] | 190 | 91
9 | O=C(O)C1CC(c2cccc(CCOc3ccc(-c4ccn[nH]4)nc3)c2)C1 (stereo not drawn) [Example 71-19] | 53 | 540
10 | O=C(O)C1CC(c2ccc(CCOc3ccc(-c4ccn[nH]4)nc3)cc2)C1 (stereo not drawn) [Example 71-20] | 500 | 190
11 | O=C(O)C1CCc2ccc(CCOc3ccc(-c4ccn[nH]4)nc3)cc2O1 (stereo not drawn) [Example 71-21, 7-[2-[6-(1H-Pyrazol-5-yl)pyridin-3-yl]oxyethyl]-3,4-dihydro-2H-chromene-2-carboxylic Acid] | 330 | 190
12 | O=C(O)[C@H]1CCc2ccc(CCOc3ccc(-c4ccn[nH]4)nc3)cc2O1 [Example 71-22-1] | 250 | 310
13 | O=C(O)[C@@H]1CCc2ccc(CCOc3ccc(-c4ccn[nH]4)nc3)cc2O1 [Example 71-22-2] | 1000 | 160
14 | O=C(O)C1COc2cc(COc3ccc(-c4ccn[nH]4)nc3)ccc2C1 (stereo not drawn) [Example 71-23] | 50 | 550
15 | O=C(O)C1CC1c1ccc(COc2ccc(-c3ccn[nH]3)nc2)c(F)c1 (stereo not drawn) [Example 71-24] | 72 | 2100
16 | CC(C)(Cc1ccc(COc2ccc(-c3ccn[nH]3)nc2)cc1)C(=O)O [Example 71-25] | 300 | 4800
17 | O=C(O)C1(Cc2cccc(COc3ccc(-c4ccn[nH]4)nc3)c2F)COC1 [Example 71-26] | 39 | 9700
18 | O=C(O)C1(Cc2cccc(CCOc3ccc(-c4ccn[nH]4)nc3)c2F)COC1 [Example 71-27] | 94 | 15000
19 | CC(C)(Cc1ccc(CCOc2ccc(-c3ccn[nH]3)nc2)cn1)C(=O)O [Example 71-28] | 1600 | 6200
20 | O=C(O)c1ccc(CCCCCOc2ccc(-c3ccn[nH]3)nc2)cn1 [Example 71-29] | 110 | 260
21 | CC(C)(Oc1ccc(CCOc2ccc(-c3ccn[nH]3)nc2)cc1)C(=O)O [Example 71-30] | 1900 | 11000
22 | CC(C)(Oc1cccc(CCOc2ccc(-c3ccn[nH]3)nc2)c1)C(=O)O [Example 71-31] | 300 | 15000
23 | CC(C)(Oc1ccc(CCOc2ccc(-c3ccn[nH]3)nc2)cn1)C(=O)O [Example 71-32] | 6200 | 23000
24 | CC(C)(COc1ccc(CCOc2ccc(-c3ccn[nH]3)nc2)cn1)C(=O)O [Example 71-33] | 1600 | 600
25 | CC(C)(Oc1cc(CCOc2ccc(-c3ccn[nH]3)nc2)ccn1)C(=O)O [Example 71-34] | 1100 | 36000
26 | CC(C)(COc1cc(CCOc2ccc(-c3ccn[nH]3)nc2)ccn1)C(=O)O [Example 71-35] | 1400 | 1900
27 | CC(C)(Oc1cccc(CCOc2ccc(-c3ccn[nH]3)nc2)n1)C(=O)O [Example 71-36] | 260 | > 50000

Row | SMILES | IC50 [1] [nM] | IC50 [2] [nM]
28 | CC(C)(COc1cccc(CCOc2ccc(-c3ccn[nH]3)nc2)n1)C(=O)O [Example 71-37] | 160 | 3500
29 | CC(C)(Oc1ccc(CCCOc2ccc(-c3ccn[nH]3)nc2)cn1)C(=O)O [Example 71-38] | 1400 | 1900
30 | CC(C)(COc1ccc(CCCOc2ccc(-c3ccn[nH]3)nc2)cn1)C(=O)O [Example 71-39] | 780 | 51
31 | CC(C)(Oc1cccc(CCCOc2ccc(-c3ccn[nH]3)nc2)n1)C(=O)O [Example 71-40] | 450 | 8700
32 | CC(C)(COc1cccc(CCCOc2ccc(-c3ccn[nH]3)nc2)n1)C(=O)O [Example 71-41] | 160 | 660
33 | CC(C)(Oc1cc(CCCOc2ccc(-c3ccn[nH]3)nc2)ccn1)C(=O)O [Example 71-42] | 630 | 2100
34 | CC(C)(COc1cc(CCCOc2ccc(-c3ccn[nH]3)nc2)ccn1)C(=O)O [Example 71-43] | 870 | 250
35 | CC(=O)N1CC(CCCCCCCCOc2ccc(-c3ccn[nH]3)nc2)(C(=O)O)C1 [Example 71-44] | 1000 | 37
36 | CC(C)(OCCCCCCCCOc1ccc(-c2ccn[nH]2)nc1)C(=O)O [Example 72-1] | 450 | 54
37 | O=C(O)C1(CCCCCCCCOc2ccc(-c3ccn[nH]3)nc2)CCOC1 (stereo not drawn) [Example 72-4] | 150 | 14
38 | O=C(O)C1(CCCCCCCCOc2ccc(-c3ccn[nH]3)nc2)CCCO1 (stereo not drawn) [Example 72-5] | 260 | 43
39 | O=C(O)C1(CCCCCCCCOc2ccc(-c3ccn[nH]3)nc2)CCS(=O)(=O)CC1 [Example 72-6] | 270 | 9.4
40 | O=C(O)C1(Cc2cccc(COc3ccc(-c4ccn[nH]4)nc3)c2F)CC1 [Example 72-7] | 14 | 15000
41 | O=C(O)C1(Cc2cccc(CCOc3ccc(-c4ccn[nH]4)nc3)c2F)CC1 [Example 72-8] | 15 | 1700
42 | CC(=O)N1CCC(CCCCCCCCOc2ccc(-c3ccn[nH]3)nc2)(C(=O)O)C1 (stereo not drawn) [Example 72-9] | 230 | 18
43 | O=C(O)C1(Cc2ccc(CCOc3ccc(-c4ccn[nH]4)nc3)cc2)CC1 [Example 74-1] | 130 | 1100
44 | O=C(O)C1CC1c1cccc(CCOc2ccc(-c3ccn[nH]3)nc2)c1F (stereo not drawn) [Example 74-3] | 88 | 60
45 | O=C(O)C1CC1c1ccc(F)c(CCOc2ccc(-c3ccn[nH]3)nc2)c1 (stereo not drawn) [Example 74-6] | 35 | 16000
46 | O=C(O)C1CC1c1cc(F)cc(CCOc2ccc(-c3ccn[nH]3)nc2)c1 (stereo not drawn) [Example 74-9] | 47 | 19000
47 | O=C(O)C1(Cc2ccc(CCOc3ccc(-c4ccn[nH]4)nc3)cc2)COC1 [Example 74-12, 3-[[4-[2-[6-(1H-Pyrazol-5-yl)pyridin-3-yl]oxyethyl]phenyl]methyl]oxetane-3-carboxylic Acid] | 510 | 13000
48 | CC(C)(NS(=O)(=O)c1cccc(COc2ccc(-c3ccn[nH]3)nc2)c1)C(=O)O [Example 75-1] | 21 | 9300
49 | CN(CC(C)(C)C(=O)O)S(=O)(=O)c1cccc(COc2ccc(-c3ccn[nH]3)nc2)c1 [Example 75-2] | 38 | 130
50 | CC(C)(CNS(=O)(=O)c1cccc(COc2ccc(-c3ccn[nH]3)nc2)c1)C(=O)O [Example 75-3] | 36 | 490
51 | CN(C(C)(C)C(=O)O)S(=O)(=O)c1cccc(COc2ccc(-c3ccn[nH]3)nc2)c1 [Example 75-4] | 43 | 29000
52 | CC(C)(COc1ccc(COc2ccc(-c3ccn[nH]3)nc2)cn1)C(=O)O [Example 75-5] | 720 | 780
53 | CC(C)(COc1cccc(COc2ccc(-c3ccn[nH]3)nc2)n1)C(=O)O [Example 75-6] | 180 | 1700
54 | CC(C)(OCCCCCCCOc1ccc(-c2cnco2)nc1)C(=O)O [Example 76-1, 2-Methyl-2-[7-[6-(1,3-oxazol-5-yl)pyridin-3-yl]oxyheptoxy]propanoic Acid] | 740 | 1500
